From article PMC4890535, “On the Kinetic and Allosteric Regulatory Properties of the ADP-Glucose Pyrophosphorylase from Rhodococcus jostii: An Approach to Evaluate Glycogen Metabolism in Oleaginous Bacteria” (Frontiers in Microbiology, 2016)
Read-outs that look alike come from different tables or passages of the source.

Legend:
[1] = target: T1, R. jostii ADP-Glc PPase (RjoGlgC) (Rhodococcus jostii, UniProt Q0S3Y4); assay: colorimetric Pi release (Malachite Green) assay of ADP-Glc synthesis, Hill fit; assay type: biochemical
T1 construct: gene glgC; full length, N-terminal His-tag (pET28c), E. coli BL21(DE3) with GroEL/GroES; start GTG changed to ATG, primer encodes MRSQPHV; homotetramer 190 kDa
T1 sequence (Q0S3Y4 1-404): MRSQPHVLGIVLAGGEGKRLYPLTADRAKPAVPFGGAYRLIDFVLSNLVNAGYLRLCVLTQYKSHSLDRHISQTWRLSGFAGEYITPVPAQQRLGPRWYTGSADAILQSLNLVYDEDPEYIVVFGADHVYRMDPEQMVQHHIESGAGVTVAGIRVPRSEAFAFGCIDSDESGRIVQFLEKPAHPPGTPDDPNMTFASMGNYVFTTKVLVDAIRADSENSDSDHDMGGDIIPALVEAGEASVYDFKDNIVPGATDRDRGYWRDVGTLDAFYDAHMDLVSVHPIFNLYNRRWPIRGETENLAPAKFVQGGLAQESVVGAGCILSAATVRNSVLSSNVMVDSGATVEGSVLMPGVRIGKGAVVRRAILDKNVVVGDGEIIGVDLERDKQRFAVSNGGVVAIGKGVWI
Source text: colorimetric Pi release (Malachite Green) assay of ADP-Glc synthesis, Hill fit on R. jostii ADP-Glc PPase (RjoGlgC)

[2] = target: T1, R. jostii ADP-Glc PPase (RjoGlgC); assay: as above; assay type: biochemical; conditions: no activator; co-substrate ATP; 5 mM MgCl2, pH 8.0, 37°C; read-out: S0.5
[3] = target: the molecule itself; assay: SEC; Superdex 200 size exclusion chromatography of the purified enzyme; data not shown
[4] = substrate: Nc1ncnc2c1ncn2[C@@H]1O[C@H](COP(=O)(O)OP(=O)(O)OP(=O)(O)O)[C@@H](O)[C@H]1O; assay: colorimetric Pi release (Malachite Green) assay of ADP-Glc synthesis, Hill fit; assay type: biochemical, Rhodococcus jostii; conditions: no activator, co-substrate Glc-1P saturating, 5 mM MgCl2, pH 8.0, 37°C
[5] = substrate: O=P(O)(O)O[C@H]1O[C@H](CO)[C@@H](O)[C@H](O)[C@H]1O; assay: as above; assay type: biochemical, Rhodococcus jostii; conditions: no activator, co-substrate ATP saturating, 5 mM MgCl2, pH 8.0, 37°C
[6] = allosteric activator; 5 mM MgCl2, ATP and Glc-1P, pH 8.0, 37°C; read-out: A0.5

Work on `O=P(O)(O)OC[C@H]1OC(O)[C@H](O)[C@@H]1O` (stereo partly drawn) [Rib-5P] yielded an EC50 [1, 6] of 4000 ± 500 µM.

In the case of `N[C@H]1[C@@H](OP(=O)(O)O)O[C@H](CO)[C@@H](O)[C@@H]1O` [GlcN-1P], the Km [2] is reported as greater than 6 mM.

For `O=P(O)(O)OC[C@H]1OC(O)[C@H](O)[C@@H](O)[C@@H]1O` (stereo partly drawn) [Glc-6P], the EC50 ([1]; read-out: A0.5; allosteric activator; 5 mM MgCl2, ATP and Glc-1P, pH 8.0, 37°C) was 88 ± 5 µM.

`C=C(OP(=O)(O)O)C(=O)O` [PEP] was tested, and the EC50 ([1]; read-out: A0.5) was 300 ± 200 µM.

`O=P(O)(O)OC[C@H]1OC(O)[C@@H](O)[C@@H](O)[C@@H]1O` (stereo partly drawn) [Man-6P] gave an EC50 [1, 6] of 56 ± 5 µM.

In the case of `O=P(O)(O)OC[C@H]1OC(O)(CO)[C@@H](O)[C@@H]1O` (stereo partly drawn) [Fru-6P], the EC50 [1, 6] is reported as 2200 ± 100 µM.

B1: ADP-glucose pyrophosphorylase from Rhodococcus jostii RHA1 (enzyme, UniProt Q0S3Y4 1-404, looked up)
chain: MRSQPHVLGIVLAGGEGKRLYPLTADRAKPAVPFGGAYRLIDFVLSNLVNAGYLRLCVLTQYKSHSLDRHISQTWRLSGFAGEYITPVPAQQRLGPRWYTGSADAILQSLNLVYDEDPEYIVVFGADHVYRMDPEQMVQHHIESGAGVTVAGIRVPRSEAFAFGCIDSDESGRIVQFLEKPAHPPGTPDDPNMTFASMGNYVFTTKVLVDAIRADSENSDSDHDMGGDIIPALVEAGEASVYDFKDNIVPGATDRDRGYWRDVGTLDAFYDAHMDLVSVHPIFNLYNRRWPIRGETENLAPAKFVQGGLAQESVVGAGCILSAATVRNSVLSSNVMVDSGATVEGSVLMPGVRIGKGAVVRRAILDKNVVVGDGEIIGVDLERDKQRFAVSNGGVVAIGKGVWI
notes: ADP-glucose pyrophosphorylase (EC 2.7.7.27), product of glgC of Rhodococcus jostii RHA1; gene of 1,215 bp, theoretical molecular mass 43.85 kDa; amplified with primers from the initiation codon (changed from GTG to ATG) to downstream of the stop codon; Homotetramer by size exclusion chromatography; also called R. jostii ADP-Glc PPase; ADP-Glc PPase; source: E. coli BL21 (DE3) harboring pGro7 …
B1 was tested, and the “stoichiometry N” value [3] was 4, the K0.5 [4] was 1.2 ± 0.1 mM and the K0.5 [5] was 1.8 ± 0.2 mM.
